The source of these data is patent EP2100894A1, “Pyridopyrimidines used as Plk1 (polo-like kinase) inhibitors” (4SC AG, priority 2008, dated 2009).

The assay addresses T1, PIk1 (Homo sapiens, UniProt P53350).
T1 construct: His tag (histidine tag) (N); made in house; host or cells: SF9 insect cells
As to the kind of experiment: PIk1 kinase activity inhibition assay (33P incorporation into alpha casein, flash plates). The format is biochemical. The settings on record: recombinant N-terminally histidine-tagged PIk1, alpha casein as substrate, 100 nM Li-ATP, 80 minutes at 30°C. Here is the method: The inhibition of PIk1 kinase activity can be measured using recombinant PIk1 protein expressed as an N-terminally histidine-tagged protein in SF9 insect cells and alpha casein as substrate. The PIk1 assay is run in 96 well plates by incubating 50 to 100 ng per well recombinant PIk1, 500 ng per well alpha casein (Sigma, # C-6780) as substrate, 10 µl of compound of invention (test compounds were dissolved as 20 mM solutions in dimethylsulfoxide (DMSO) and subsequently diluted), and 100 nM Li-ATP (including ^33P-ATP) in 100 µl of reaction buffer ([…], pH 7.5; 3 mM MgCl2; 3 mM MnCl2; 3 µM Na-Orthovanadat; 1 mM DTT; 1 µg/ml PEG 8000) for 80 minutes at 30°C. The reactions are terminated by adding 100 µl stopping buffer (2% H3PO4 for 5 minutes) and are washed 3 times with washing solution (0,9% NaCl). Determining ^33P incorporated into the protein substrate alpha casein, the detection is based on the adhesion of the phosphorylated protein to the surface of scintillator-coated flash plates (Perkin Elmer, USA; # SMP-200). Phosphorylation of alpha casein is measured by counting the radioactivity bound to the plate for 60 sec. using a plate reader (Perkin Elmer, USA; Wallac Microbeta). By this method, the IC50 value of the PIk1 inhibition is determined as described above. […]

The structures appear in SMILES notation.

T1 sequence (P53350 whole entry): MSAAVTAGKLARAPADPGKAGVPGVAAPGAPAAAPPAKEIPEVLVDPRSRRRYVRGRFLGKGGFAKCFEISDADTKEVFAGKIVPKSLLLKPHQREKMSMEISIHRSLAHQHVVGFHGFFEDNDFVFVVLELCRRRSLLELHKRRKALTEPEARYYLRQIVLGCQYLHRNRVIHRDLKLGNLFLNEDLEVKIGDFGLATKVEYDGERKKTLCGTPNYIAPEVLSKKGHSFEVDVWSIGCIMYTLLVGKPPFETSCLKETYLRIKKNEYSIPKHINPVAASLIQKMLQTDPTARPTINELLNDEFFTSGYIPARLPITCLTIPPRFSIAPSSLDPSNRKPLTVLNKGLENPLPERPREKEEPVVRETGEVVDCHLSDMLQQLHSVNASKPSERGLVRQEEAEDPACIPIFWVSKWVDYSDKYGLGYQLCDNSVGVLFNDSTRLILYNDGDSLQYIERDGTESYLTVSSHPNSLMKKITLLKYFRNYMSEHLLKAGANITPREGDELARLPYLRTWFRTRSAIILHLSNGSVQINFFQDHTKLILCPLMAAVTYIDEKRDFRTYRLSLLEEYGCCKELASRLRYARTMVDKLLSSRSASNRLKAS

Regarding `CCOc1c(-c2nccs2)c2nc(Nc3ccc(C(=O)NC4CCN(C)CC4)cc3OC)ncc2n(C)c1=O` [Example 50, 4-{[7-ethoxy-5-methyl-6-oxo-8-(1,3-thiazol-2-yl)-5,6-dihydropyrido[3,2-d]pyrimidin-2-yl]amino}-3-methoxy-N-(1-methylpiperidin-4-yl)benzamide], the 50% inhibitory concentration (IC50) is under 100 nM.

For the molecule `COc1cc(C(=O)NC2CCN(C)CC2)ccc1Nc1ncc2c(n1)c(-c1ccccc1)c(OCC1CC1)c(=O)n2C` [Example 51, 4-{[7-(cyclopropylmethoxy)-5-methyl-6-oxo-8-phenyl-5,6-dihydro-pyrido[3,2-d]pyrimidin-2-yl]amino}-3-methoxy-N-(1-methylpiperidin-4-yl)benzamide], the IC50 is under 10 nM.

Consider `COc1cc(C(=O)NC2CCN(C)CC2)ccc1Nc1ncc2c(n1)c(-c1ccc(F)cc1)c(OCC1CC1)c(=O)n2C` [Example 52, 4-{[7-(cyclopropylmethoxy)-8-(4-fluorophenyl)-5-methyl-6-oxo-5,6-dihydropyrido[3,2-d]pyrimidin-2-yl]amino}-3-methoxy-N-(1-methylpiperidin-4-yl)benzamide], for which the IC50 was under 10 nM.

As for `COc1cc(C(=O)NC2CCN(C)CC2)ccc1Nc1ncc2c(n1)c(-c1cccs1)c(OCC1CC1)c(=O)n2C` [Example 53, 4-{[7-(cyclopropylmethoxy)-5-methyl-6-oxo-8-(2-thienyl)-5,6-dihydro-pyrido[3,2-d]pyrimidin-2-yl]amino}-3-methoxy-N-(1-methylpiperidin-4-yl)benzamide], the concentration for half-maximal inhibition (IC50) is under 10 nM.

With `COc1cc(C(=O)NC2CCN(C)CC2)ccc1Nc1ncc2c(n1)c(-c1cccc(F)c1)c(OCC1CC1)c(=O)n2C` [Example 54, 4-{[7-(cyclopropylmethoxy)-8-(3-fluorophenyl)-5-methyl-6-oxo-5,6-dihydropyrido[3,2-d]pyrimidin-2-yl]amino}-3-methoxy-N-(1-methylpiperidin-4-yl)benzamide], the IC50 was under 10 nM.

Consider `COc1cc(C(=O)NC2CCN(C)CC2)ccc1Nc1ncc2c(n1)c(-c1cc(C)cs1)c(OCC1CC1)c(=O)n2C` [Example 55, 4-{[7-(cyclopropylmethoxy)-5-methyl-8-(4-methyl-2-thienyl)-6-oxo-5,6-dihydropyrido[3,2-d]pyrimidin-2-yl]amino}-3-methoxy-N-(1-methylpiperidin-4-yl)benzamide], for which the 50% inhibitory concentration (IC50) is under 10 nM.

In the case of `C/C=C/c1c(OC2CC2)c(=O)n(C)c2cnc(Nc3ccc(C(=O)NC4CCN(C)CC4)cc3OC)nc12` [Example 56, 4-({7-(cyclopropyloxy)-5-methyl-6-oxo-8-[(1E)-prop-1-en-1-yl]-5,6-dihydropyrido[3,2-d]pyrimidin-2-yl}amino)-3-methoxy-N-(1-methylpiperidin-4-yl)benzamide], the IC50 is under 10 nM.

Regarding `COc1cc(C(=O)NC2CCN(C)CC2)ccc1Nc1ncc2c(n1)c(C1=CCCC1)c(OCC1CC1)c(=O)n2C` [Example 57, 4-{[8-cyclopent-1-en-1-yl-7-(cyclopropylmethoxy)-5-methyl-6-oxo-5,6-dihydropyrido[3,2-d]pyrimidin-2-yl]amino}-3-methoxy-N-(1-methylpiperidin-4-yl)benzamide], the concentration for half-maximal inhibition (IC50) is under 10 nM.

As to `COc1cc(C(=O)NC2CCN(C)CC2)ccc1Nc1ncc2c(n1)c(-c1ccsc1)c(OC1CC1)c(=O)n2C` [Example 58, 4-{[7-(cyclopropyloxy)-5-methyl-6-oxo-8-(3-thienyl)-5,6-dihydropyri-do[3,2-d]pyrimidin-2-yl]amino}-3-methoxy-N-(1-methylpiperidin-4-yl)benzamide], the 50% inhibitory concentration (IC50) was under 10 nM.

Regarding `COc1cc(C(=O)NC2CCN(C)CC2)ccc1Nc1ncc2c(n1)c(-c1ccccc1F)c(OCC1CC1)c(=O)n2C` [Example 59, 4-{[7-(cyclopropylmethoxy)-8-(2-fluorophenyl)-5-methyl-6-oxo-5,6-dihydropyrido[3,2-d]pyrimidin-2-yl]amino}-3-methoxy-N-(1-methylpiperidin-4-yl)benzamide], the IC50 was under 10 nM.

Turning to `COc1cc(C(=O)NC2CCN(C)CC2)ccc1Nc1ncc2c(n1)c(-c1csc(C)c1)c(OCC1CC1)c(=O)n2C` [Example 60, 4-{[7-(cyclopropylmethoxy)-5-methyl-8-(5-methyl-3-thienyl)-6-oxo-5,6-dihydropyrido[3,2-d]pyrimidin-2-yl]amino}-3-methoxy-N-(1-methylpiperidin-4-yl)benzamide], the IC50 is under 10 nM.

`COc1cc(C(=O)NC2CCN(C)CC2)ccc1Nc1ncc2c(n1)c(-c1cccc(C)c1)c(OCC1CC1)c(=O)n2C` [Example 61, 4-{[7-(cyclopropylmethoxy)-5-methyl-8-(3-methylphenyl)-6-oxo-5,6-dihydropyrido[3,2-d]pyrimidin-2-yl]amino}-3-methoxy-N-(1-methylpiperidin-4-yl)benzamide]: the 50% inhibitory concentration (IC50) was under 10 nM.

Take `COc1cc(C(=O)NC2CCN(C)CC2)ccc1Nc1ncc2c(n1)c(-c1ccc(C)cc1)c(OCC1CC1)c(=O)n2C` [Example 62, 4-{[7-(cyclopropylmethoxy)-5-methyl-8-(4-methylphenyl)-6-oxo-5,6-dihydropyrido[3,2-d]pyrimidin-2-yl]amino}-3-methoxy-N-(1-methylpiperidin-4-yl)benzamide]: the IC50 is under 10 nM.

Take `COc1cc(C(=O)NC2CCN(C)CC2)ccc1Nc1ncc2c(n1)c(-c1cscn1)c(OCC1CC1)c(=O)n2C` [Example 63, 4-{[7-(cyclopropylmethoxy)-5-methyl-6-oxo-8-(1,3-thiazol-4-yl)-5,6-dihydropyrido[3,2-d]pyrimidin-2-yl]amino}-3-methoxy-N-(1-methylpiperidin-4-yl)benzamide]: the half-inhibitory concentration (IC50) was under 10 nM.

Consider `C/C=C/c1c(OCC2CC2)c(=O)n(C)c2cnc(Nc3ccc(C(=O)NC4CCN(C)CC4)cc3C)nc12` [Example 64, 4-({7-(cyclopropylmethoxy)-5-methyl-6-oxo-8-[(1E)-prop-1-en-1-yl]-5,6-dihydropyrido[3,2-d]pyrimidin-2-yl}amino)-3-methyl-N-(1-methylpiperidin-4-yl)benzamide], for which the IC50 was under 10 nM.

As for `C/C=C/c1c(OCC2CC2)c(=O)n(C)c2cnc(Nc3ccc(C(=O)NC4CCN(C)CC4)cc3CC)nc12` [Example 65, 4-({7-(cyclopropylmethoxy)-5-methyl-6-oxo-8-[(1E)-prop-1-en-1-yl]-5,6-dihydropyrido[3,2-d]pyrimidin-2-yl}amino)-3-ethyl-N-(1-methylpiperidin-4-yl)benzamide], the half-inhibitory concentration (IC50) is under 10 nM.

With `Cc1cc(C(=O)NC2CCN(C)CC2)ccc1Nc1ncc2c(n1)c(-c1ccsc1)c(OCC1CC1)c(=O)n2C` [Example 66, 4-{[7-(cyclopropylmethoxy)-5-methyl-6-oxo-8-(3-thienyl)-5,6-dihydropyrido[3,2-d]pyrimidin-2-yl]amino}-3-methyl-N-(1-methylpiperidin-4-yl)benzamide], the IC50 is under 10 nM.

In the case of `C/C=C/c1c(OCC2CC2)c(=O)n(C)c2cnc(Nc3ccc(C(=O)NC4CCN(C)CC4)cc3Cl)nc12` [Example 67, 3-chloro-4-({7-(cyclopropylmethoxy)-5-methyl-6-oxo-8-[(1E)-prop-1-en-1-yl]-5,6-dihydropyrido[3,2-d]pyrimidin-2-yl}amino)-N-(1-methylpiperidin-4-yl)benzamide], the IC50 is under 10 nM.

For `COc1cc(C(=O)NC2CCN(C)CC2)ccc1Nc1ncc2c(n1)c(-c1ccncc1)c(OCC1CC1)c(=O)n2C` [Example 68, 4-{[7-(cyclopropylmethoxy)-5-methyl-6-oxo-8-pyridin-4-yl-5,6-dihydro-pyrido[3,2-d]pyrimidin-2-yl]amino}-3-methoxy-N-(1-methylpiperidin-4-yl)benzamide], the IC50 is under 10 nM.

For `COc1cc(C(=O)NC2CCN(C)CC2)ccc1Nc1ncc2c(n1)c(-c1cccnc1)c(OCC1CC1)c(=O)n2C` [Example 69, 4-{[7-(cyclopropylmethoxy)-5-methyl-6-oxo-8-pyridin-3-yl-5,6-dihydro-pyrido[3,2-d]pyrimidin-2-yl]amino}-3-methoxy-N-(1-methylpiperidin-4-yl)benzamide], the concentration for half-maximal inhibition (IC50) was under 10 nM.

For the molecule `CN1CCC(NC(=O)c2ccc(Nc3ncc4c(n3)c(-c3ccsc3)c(OCC3CC3)c(=O)n4C)c(Cl)c2)CC1` [Example 70, 3-chloro-4-{[7-(cyclopropylmethoxy)-5-methyl-6-oxo-8-(3-thienyl)-5,6-dihydropyrido[3,2-d]pyrimidin-2-yl]amino}-N-(1-methylpiperidin-4-yl)benzamide], the IC50 is under 10 nM.

As to `COc1cc(C(=O)NC2CCN(C)CC2)ccc1Nc1ncc2c(n1)c(-c1ccccc1C)c(OCC1CC1)c(=O)n2C` [Example 71, 4-{[7-(cyclopropylmethoxy)-5-methyl-8-(2-methylphenyl)-6-oxo-5,6-dihydropyrido[3,2-d]pyrimidin-2-yl]amino}-3-methoxy-N-(1-methylpiperidin-4-yl)benzamide], the 50% inhibitory concentration (IC50) was under 100 nM.

In the case of `CCc1cc(C(=O)NC2CCN(C)CC2)ccc1Nc1ncc2c(n1)c(-c1ccsc1)c(OCC1CC1)c(=O)n2C` [Example 72, 4-{[7-(cyclopropylmethoxy)-5-methyl-6-oxo-8-(3-thienyl)-5,6-dihydro-pyrido[3,2-d]pyrimidin-2-yl]amino}-3-ethyl-N-(1-methylpiperidin-4-yl)benzamide], the half-inhibitory concentration (IC50) was under 10 nM.
